The source of these data is patent EP0705258B1, “AZOLYL-CYCLIC AMINE DERIVATIVES WITH IMMUNOMODULATORY ACTIVITY” (Knoll AG, priority 1993, dated 1995).

A word on the IC50: it is the concentration that inhibits the measured activity by half. The low end stands for inhibition by little substance, the high end for a need for much substance.

Where a name gives a salt, the structure may show the parent alone. Some results are limits rather than exact numbers.

The test system of one test is lymphocyte proliferation (BALB/c responder and mitomycin C treated C57BL/6 stimulator spleen cells). Nature of the test: Mixed Lymphocyte Reaction (Test A), one-way MLR, tritiated thymidine incorporation. In kind it is cell-based, mice. To be noted: Mus musculus; concentration causing 50% inhibition of lymphocyte proliferation, by linear interpolation; ≤ = active at this concentration but not tested at lower doses. The protocol: A mixed lymphocyte reaction (MLR) occurs when lymphocytes from two genetically dissimilar individuals, or inbred strains of mice are cultured together. An MLR results in the activation and proliferation of lymphocytes, which is measured by the incorporation of radiolabelled thymidine into the cellular DNA synthesised during cell division. A 'one-way' MLR is used to determine the immunosuppressive activity of test compounds in vitro. In this reaction one population of spleen cells serves as the stimulator cells and is treated with mitomycin C to prevent cell division. Spleen cells from a second allogeneic population (responder cells) are untreated and when mixed with the stimulator cells are able to undergo division which is measured. The degree of proliferation is measured in the presence and absence of test compound to assess the immunosuppressive activity of the compound.
The techniques for carrying out lymphocyte proliferation assays including MLRs are well known, eg Bradley, pages 156-166, in Mishell and Shiigi, Eds. Selected Methods in Cellular Immunology (Freeman, San Francisco, 1980); and Battisto et al, methods in Enzymology 1987; 150: 83-91. Various slight modifications of these techniques are in use and that used herein is described in Gibb, Webber and Bowen, J Immunological Methods 1985; 81: 107-113.
Cell suspensions obtained from the spleens of female BALB/c and C57BL/6 strain mice of between 6 and 9 weeks of age were used as sources of responder and stimulator cells respectively. The mice were killed using a rising concentration of CO2 and the spleens removed aseptically and teased using a scalpel and forceps to produce a single cell suspension in Hanks balanced salt solution (HBSS). The suspensions were filtered through cell strainers (Falcon), sedimented by centrifugation and resuspended in Tris-buffered ammonium chloride pH 7.2 (medium D) to lyse the erythrocytes. The cells were sedimented again and washed twice in HBSS before resuspending in complete RPMI 1640 tissue culture medium (medium E). The C57BL/6 cells were resuspended to 9 mls per spleen and a solution of mitomycin C at 400 µg/ml in medium E added to give a final concentration of 40 µg/ml. After incubation of the C57BL/6 cells at 37°C for 30 minutes in an atmosphere of 5% CO2 and 95% air, the cells were sedimented and washed 3 times in medium E. Both cell suspensions were diluted in medium E to 5 x 10^6 cells/ml. 100µl of each of the responder and stimulator cell suspensions were aliquoted into the wells of 96 well flat bottom microtitre plates containing 50 µl of test compound at an appropriate dilution (initially 50 µM diluted in medium E from a stock solution at 100 mM in dimethyl sulphoxide) giving a final test compound concentration of 10 µM (final dilution). Compounds active at this concentration were tested at further final dilution of 1 µM, 0.1 µM and 0.01 µM and 0.001 µM to determine the concentration of test compound which causes 50% inhibition of the immune response (IC50). After four days of culture at 37°C in a humidified atmosphere of 5% CO2 and 95% air, 1 µCi of tritiated thymidine in 20 µl of medium E was added to each well and the plates incubated for a further 24 hours. Cells were then harvested onto Inotech G7 glass fibre filter mats using an Inotech cell harvester. The filters were transferred to vials to which 2 ml of Packard Emulsifier-Safe scintillation fluid was added and the radioactivity from the incorporated thymidine was counted in a Packard liquid scintillation counter. The counts per minute (CPM) reflect the degree of lymphocyte proliferation. The data were analysed to determine the percentage inhibition of lymphocyte proliferation by the test compound. […]
As to `Cc1nccn1CCC1CCN(CCCc2ccc(Cl)cc2)CC1` [Example 105, 1-[3-(4-Chlorophenyl)propyl]-4-[2-(2-methylimidazol-1-yl)ethyl]piperidine], the IC50 is not above 1000 nM.
`c1ccc(CCCN2CCC(CCn3ncnn3)CC2)cc1` [Example 121, 1-(3-Phenylpropyl)-4-[2-(2H-tetrazol-2-yl)ethyl]piperidine] displayed an IC50 not above 1000 nM.
On the same count and under the same terms, as for `CC(CCN1CCC(CCn2ccnc2)CC1)c1ccccc1` (stereo not drawn) [Example 126, 4-[2-(Imidazol-1-yl)ethyl]-1-(3-phenylbutyl)piperidine], the figure is 3700 nM; as for `CCCCCCCCCCCc1nccn1CCC1CCN(C(=O)CCc2ccccc2)CC1` [Example 62, 1-(3-Phenylpropionyl)-4-[2-(2-undecylimidazol-1-yl)ethyl]piperidine], 1900 nM; as for `c1ccc(CCCC2CCN(CCn3cncn3)CC2)cc1` [Example 97, 1-[2-(1H-1,2,4-triazol-1-yl)ethyl]-4-(3-phenylpropyl)-piperidine dihydrochloride], 2300 nM.
Same read-out and setting: to `CCc1nccn1CC1CCN(C(=O)CCc2ccccc2)CC1` [Example 66, 4-(2-Ethylimidazol-1-ylmethyl)-1-(3-phenylpropionyl)piperidine] belongs not above 1000 nM; to `c1ccc(CCCN2CCC(CCn3ccnn3)CC2)cc1` [Example 119, 1-(3-Phenylpropyl)-4-[2-(1H-1,2,3-triazol-1-yl)ethyl]piperidine], 2400 nM.
On the same count and under the same terms, as for `c1ccc(CCCN2CCN(CCn3ccnc3)CC2)cc1` [Example 95, 1-[2-imidazol-1-yl)ethyl]-4-(3-phenylpropyl)piperazine trihydrochloride], the figure is 2800 nM.
In turn, `O=C(CCc1ccccc1)N1CCC(CCn2ccnc2)CC1` [Example 50, 4-[2-(imidazol-1-yl)ethyl]-1-(3-phenylpropionyl)piperidine] had an IC50 of 200 nM.
`Cc1nccn1CCC1CCN(C(=O)CCCc2ccccc2)CC1` [Example 82, 4-[2-(2-Methylimidazol-1-yl)ethyl]-1-(4-phenylbutyroyl)piperidine]: the IC50 was not above 1000 nM.
In the case of `Cc1ccc(CCC(=O)N2CCC(CCn3ccnc3C)CC2)cc1` [Example 94, 4-[2-(2-methylimidazol-1-yl)ethyl]-1[3-(4-methylphenyl)propionyl]piperidine], the IC50 was not above 1000 nM.
In turn, `CC(C)c1nccn1CCC1CCN(C(=O)CCc2ccccc2)CC1` [Example 58, 4-[2-(2-Isopropylimidazol-1-yl)ethyl]-1-(3-phenylpropionyl)piperidine] yielded an IC50 of 4 nM.
Same read-out and setting: as for `Cc1nccn1CCC1CCN(C(=O)CCc2ccccc2)CC1` [Example 72, 4-[2-(2-Methylimidazol-1-yl)ethyl]-1-(3-phenylpropionyl)piperidine], the figure is 30 nM; as for `O=C(CCCc1ccccc1)N1CCC(CCn2ccnc2)CC1` [Example 85, 4-[2-(Imidazol-1-yl)ethyl]-1-(4-phenylbutyroyl)piperidine], 600 nM.
On the same count and under the same terms, as for `O=C(CCc1ccccc1)N1CCC(CCCn2ccnc2)CC1` [Example 56, 4-[3-(Imidazol-1-yl)propyl]-1-(3-phenylpropionyl)piperidine], the figure is not above 1000 nM; as for `c1ccc(CCCN2CCC(CCn3cnc(-c4ccccc4)c3-c3ccccc3)CC2)cc1` [Example 108, 4-[2-(4,5-Diphenylimidazol-1-yl)ethyl]-1-(3-phenylpropyl)piperidine], 1200 nM.
Same read-out and setting: as for `Cc1nc2ccccc2n1CCC1CCN(C(=O)CCc2ccccc2)CC1` [Example 65, 2-Methyl-1-{2-[1-(3-phenylpropionyl)-piperidin-4-yl]ethyl}benzimidazole], the figure is 3800 nM.

The same test, now with this note: concentration causing 50% inhibition of lymphocyte proliferation, by linear interpolation; ≤ = active at this concentration but not tested at lower doses.
In turn, “4-[2-(4-Methylimidazol-1-yl)ethyl]-1-(3-phenylpropyl)piperidine and 4-[2-(5-Methylimidazol-1-yl)ethyl]-1-(3-phenylpropyl)piperidine [Example 118]” yielded an IC50 of 1400 nM.

The subject of a further test is tumour necrosis factor-α (TNF-α). Nature of the test: Mouse Tumour Necrosis Factor Test (Test B), mouse endotoxin shock model, serum TNF-α by ELISA. In kind it is in vivo, BALB/c mice. To be noted: Mus musculus; minimum effective oral dose giving significant reduction in serum TNF-α of ≥35%; dosed 2 h before LPS i.p.; ≤ = active at dose given but not tested at lower doses; read-out: MTNF:MED. From the text: Preferred compounds of the present invention are active in an in-vivo test which determines the ability of the compounds to inhibit the release of tumour necrosis factor-α (TNF-α) in a mouse endotoxin shock model (Test B). This model is similar to that described by Zuckerman and Bendele (1989), Infection and Immunity 57 (10): p3009-3013.
Each compound of formula I was combined with a carrier of a solution of 1.5% v/v sorbitan esters under the trade name Tween 80 and 0.25% v/v cellosize in sterile water (100 µl) and was administered orally to a group of four BALB/c mice. The concentration of compound was such as to provide dosages selected from 100, 30, 10, 3, 1, 0.1 and 0.03 mg/kg. Two hours after such oral administration, lipopolysaccharide (LPS) (E. coli 0127:B8) (100 µg) in sterile water (0.2 ml) was administered intraperitoneally to the test mice.
A control group of eight BALB/c mice was treated in a similar manner as the test group except that no test compound was included with the carrier.
One hour after LPS administration the mice were killed and blood was collected by cardiac puncture. The blood was incubated at 20°C for 2 hours and the serum was separated from the clotted blood following centrifugation. Serum tumour necrosis factor-α (TNF-α) levels were assayed by an enzyme-linked immunosorbent assay (ELISA) and the concentration of TNF-α in each of the drug-treated groups was compared with the control group by one-way analysis of variance followed by a multiple t-test.
The ELISA was carried out by coating a 96-well vinyl assay plate (Costar) overnight at 4°C with 50 µl per well of 2 µg/ml hamster anti-mouse TNF monoclonal antibody in 0.1M sodium hydrogen carbonate buffer at pH 8.2. After washing the plate with phosphate buffered saline (PBS) containing 0.05% v/v sorbitan esters under the trade name Tween 20 (wash buffer), a blocking/dilution buffer (10% sheep serum in PBS containing 0.1% v/v sorbitan esters under the trade name Tween 20 (200 µl)) was aliquoted to each well and incubated at 37°C for 0.5 hours. After aspirating the blocking buffer, the serum samples and pure TNF (as a standard) diluted in blocking/dilution buffer, were added to the wells and incubated at 37°C for 2 hours. After washing with the wash buffer, a polyclonal rabbit anti-mouse TNF-α antibody in blocking/dilution buffer (100 µl of a 1 in 10,000 dilution) was added and incubated for a further 1.5 hours at 37°C. After further washes, anti-rabbit IgG peroxidase conjugate (100 µl of a 1 in 4000 dilution) was added and incubated at 37°C for 0.5 hours. After further washing, the substrate solution (100 µl per well of 0.1 mg/ml 3,3', 5,5'-tetramethylbenzidine dihydrochloride in 0.1M phosphate citrate buffer, pH 5.0, to which 2 µl of 30% hydrogen peroxide per 10 ml was added just before use) was added and the colour allowed to develop. The reaction was stopped by the addition of 1M sulphuric acid (25 µl) and the optical density read in a multichannel spectrophotometer at 450 nm. The mean TNF-α concentration was determined by comparison with the standard curve and the mean TNF-α concentration for each group compared with that produced by the control group. Drug treatments which cause a statistically significant reduction in TNF-α concentration of ≥35% at a single dose at 100 mg/kg or less were considered active.
On the technique in general: In an ELISA, binding on a coated surface is turned into a signal by an enzyme label.
Regarding `c1ccc(CCCN2CCC(CCn3ncnn3)CC2)cc1` [Example 121, 1-(3-Phenylpropyl)-4-[2-(2H-tetrazol-2-yl)ethyl]piperidine], the minimal effective dose turned out to be 100 mg/kg.
For the compound `CC(CCN1CCC(CCn2ccnc2)CC1)c1ccccc1` (stereo not drawn) [Example 126, 4-[2-(Imidazol-1-yl)ethyl]-1-(3-phenylbutyl)piperidine], the minimal effective dose was not above 100 mg/kg.
For the compound `O=C(c1ccccc1Cl)c1nccn1CCC1CCN(CCCc2ccccc2)CC1` [Example 92, 4-{2-[2-(2-Chlorobenzoyl)imidazol-1-yl]-ethyl}-1-(3-phenylpropyl)piperidine], the minimal effective dose was not above 10 mg/kg.
Consider `c1ccc(CCCN2CCN(CCn3ccnc3)CC2)cc1` [Example 95, 1-[2-imidazol-1-yl)ethyl]-4-(3-phenylpropyl)piperazine trihydrochloride], for which the minimal effective dose is not above 3 mg/kg.
In the case of `O=C(CCc1ccccc1)N1CCCC(Cn2ccnc2)C1` (stereo not drawn) [Example 53, 3-Imidazol-1-ylmethyl-1-(3-phenylpropionyl)-piperidine], the minimal effective dose stood at 30 mg/kg.
On the same count and under the same terms, as for `O=C(CCN1CCC(CCn2ccnc2)CC1)c1ccccc1` [Example 89, 4-[2-(Imidazol-1-yl)ethyl]-1-(3-oxo-3-phenylpropyl)piperidine], the figure is not above 30 mg/kg.
Turning to `Cl.Cl.O=C(CCc1ccccc1)N1CCCCC1CCn1ccnc1` (stereo not drawn) [Example 52, 2-[2-(Imidazol-1-yl)ethyl]-1-(3-phenylpropionyl)piperidine dihydrochloride], the minimal effective dose was determined as 100 mg/kg.
Same read-out and setting: to `COc1ccc(CCCN2CCC(CCn3ccnc3)CC2)cc1` [Example 124, 4-[2-(Imidazol-1-yl)ethyl]-1-[3-(4-methoxyphenyl)propyl]piperidine] belongs not above 30 mg/kg.

Staying with this test, now noted: minimum effective oral dose giving significant reduction in serum TNF-α of ≥35%; dosed 2 h before LPS i.p.; ≤ = active at dose given but not tested at lower doses.
For the compound “4-[2-(4-Methylimidazol-1-yl)ethyl]-1-(3-phenylpropyl)piperidine and 4-[2-(5-Methylimidazol-1-yl)ethyl]-1-(3-phenylpropyl)piperidine [Example 118]”, the “MTNF:MED” value is on record as not above 100 mg/kg.
